Where two headings read alike, the source gives them in different places.
How the values were obtained:
BCL-2 = BCL-2 (Homo sapiens (Human), UniProt P10415); experiment: BCL-2 TR-FRET Assay (primary PPI inhibition); assay type: binding; conditions: 60 min incubation, read-out: BCL2 IC50
How it was run: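 His-tagged BCL-2 (3 ng) with anti-His Tb donor, dye-labeled acceptor and BCL-2 peptide ligand; compound added at 200× stock, final DMSO 0.5%. 60 min incubation, then TR-FRET read at 340 nm excitation, 620/665 nm emission, 60 µs delay, 500 µs integration.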

RS4-11 cells = experiment: Cell viability assay (CellTiter-Glo), RS4-11; assay type: cell-based; conditions: 3 days of incubation
How it was run: (§1)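 4000 cells/well in DMEM (HEK293, adhered overnight) or RPMI (RS4-11, MOLT-4) with 10% FBS; compounds added at 0.2% DMSO final. After 3 days, viability read by CellTiter-Glo luminescence.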

HEK293 cells = experiment: Cell viability assay (CellTiter-Glo), HEK293; assay type: cell-based; conditions: 3 days of incubation
How it was run: as §1

MOLT-4 cells = experiment: Cell viability assay (CellTiter-Glo), MOLT-4; assay type: cell-based; conditions: 3 days of incubation
How it was run: as §1

[1] = system: caspase-3 and -7 activities in RS4-11 cells; experiment: Caspase-3/7 activation (Caspase-Glo 3/7) in RS4-11 cells; assay type: cell-based; conditions: 3.5 h, read-out: Cas-3/7 EC50
How it was run: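 RS4-11 cells exposed to graded compound concentrations for 3.5 h at 37 °C, 5% CO2. Caspase-3/7 activity then read as luminescence after 30 min at rt with a DEVD-based luminogenic substrate reagent.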

BCL-xL = BCL-xL (Homo sapiens (Human), UniProt Q07817); experiment: BCL-xL TR-FRET Assay (primary PPI inhibition); assay type: binding; conditions: 60 min incubation, read-out: BCLxL IC50
How it was run: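 TR-FRET competition of His-tagged BCL-xL (10.5 ng) binding to dye-labeled peptide ligand, with anti-His Tb donor; compound added from 200× stock, 0.5% DMSO final. After 60 min incubation, read at 340 nm excitation, 620/665 nm emission, 60 µs delay, 500 µs integration.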

BCL-2 [G101V] = BCL-2 [G101V] (Homo sapiens (Human), UniProt P10415, G101V); experiment: BCL-2 [G101V] TR-FRET Assay (primary PPI inhibition); assay type: binding; conditions: 60 min incubation, read-out: BCL2[G101V] IC50
Experimental: Example C. BCL-2 [G101V]TR-FRET Assay
The following assay concentrations and times were used: 0.22 ng/μl of BCL-2 (SinoBiological, #10195-H08E1), 5 μL of 1:100 anti-His Tb-labeled donor, 5 μL of 1:100 Dye-labeled acceptor, 5 μL of 1:40 BCL-2 Peptide Ligand (BPS Bioscience, #50223), and 2 μL of 200× test compound, with 60 min incubation time (final concentration of DMSO 0.5%). The results of the assay were read using a plate reader with the following parameters: TR FRET, 340ex/620 and 665em; 60 usec Delay; and 500 usec integration.
Instrumentation: CLARIOstar Plus (BMG LABTECH); Biomek FX for liquid handling (Beckman Coulter).

[2] = Cell viability assay (CellTiter-Glo), HEK293; assay type: cell-based; conditions: human, HEK293 cells, 3 days of incubation
How it was run: as §1

Sequence of BCL-xL (Q07817 whole entry): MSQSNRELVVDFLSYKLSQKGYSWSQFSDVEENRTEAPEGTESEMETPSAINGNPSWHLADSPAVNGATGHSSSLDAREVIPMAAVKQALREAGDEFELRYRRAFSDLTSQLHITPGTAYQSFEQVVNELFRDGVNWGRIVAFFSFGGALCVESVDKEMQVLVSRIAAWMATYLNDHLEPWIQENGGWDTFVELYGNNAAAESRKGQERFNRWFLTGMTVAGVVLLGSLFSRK

SMILES	IC50 (BCL-2)	CC50 (RS4-11 cells; Homo sapiens, RS4-11, 72 h)	CC50 (HEK293 cells)	CC50 (MOLT-4 cells; Homo sapiens, 72 h)	EC50 ([1]; Homo sapiens)	IC50 (BCL-xL)	IC50 (BCL-2 [G101V])	CC50 at 3 days [2]	CC50 (RS4-11 cells)	CC50 (MOLT-4 cells)	EC50 [1]
COc1cccc(CN(C(=O)c2cc(-c3cc(Cl)c(F)cc3C(=O)N3Cc4ccccc4C[C@H]3CN3CCOCC3)n(C)c2C)c2ccc(C#N)cc2)c1C [Compound 29, 5-[5-chloro-4-fluoro-2-[(3S)-3-(morpholinomethyl)-3,4-dihydro-1H-isoquinoline-2-carbonyl]phenyl]-N-(4-cyanophenyl)-N-[(3-methoxy-2-methyl-phenyl)methyl]-1,2-dimethyl-pyrrole-3-carboxamide]	10 to 50 nM	100 to 200 nM	> 25000 nM	> 10000 nM	> 500 nM	–	–	–	–	–	–
Cc1c(C(=O)N(Cc2ccccc2C#N)c2ccc3[nH]ncc3c2)cc(-c2cc(Cl)ccc2C(=O)N2Cc3ccccc3C[C@H]2CN2CCOCC2)n1C [Compound 68, 5-[5-chloro-2-[(3S)-3-(morpholinomethyl)-3,4-dihydro-1H-isoquinoline-2-carbonyl]phenyl]-N-[(2-cyanophenyl)methyl]-N-(1H-indazol-5-yl)-1,2-dimethyl-pyrrole-3-carboxamide]	10 to 50 nM	> 200 nM	–	> 10000 nM	> 500 nM	> 5000 nM	> 1000 nM	> 25000 nM	–	–	–
COc1cccc(CN(C(=O)c2cc(-c3cc(Cl)ccc3C(=O)N3Cc4ccccc4C[C@H]3CN3CCOCC3)n(C)c2C)c2ccc3[nH]ncc3c2)c1C [Compound 70, 5-[5-chloro-2-[(3S)-3-(morpholinomethyl)-3,4-dihydro-1H-isoquinoline-2-carbonyl]phenyl]-N-(1H-indazol-5-yl)-N-[(3-methoxy-2-methyl-phenyl)methyl]-1,2-dimethyl-pyrrole-3-carboxamide]	5 to 10 nM	> 200 nM	–	≤ 5000 nM	> 500 nM	> 5000 nM	> 1000 nM	> 25000 nM	–	–	–
COc1cccc(CN(C(=O)c2cc(-c3cc(Cl)c(F)cc3C(=O)N3Cc4ccccc4C[C@H]3CN3CCOCC3)n(C)c2C)c2ccc(C#N)cc2)c1C [Compound 73, 5-[5-chloro-4-fluoro-2-[(3S)-3-(morpholinomethyl)-3,4-dihydro-1H-isoquinoline-2-carbonyl]phenyl]-N-(4-cyanophenyl)-N-[(3-methoxy-2-methyl-phenyl)methyl]-1,2-dimethyl-pyrrole-3-carboxamide]	> 50 nM	–	10000 to 25000 nM	–	–	2000 to 5000 nM	–	–	> 200 nM	> 10000 nM	> 500 nM
